{"source": "paper PMC10318527", "about": "“Utilization of dietary mixed-linkage β-glucans by the Firmicute Blautia producta” (The Journal of Biological Chemistry, 2023)", "key": {"BPGH16 mutant E379A": {"system": "BPGH16 mutant E379A", "assay": "Kinetics of BPGH16 mutant E379A (DNS assay)", "type": "biochemical, Blautia producta ATCC 27340", "experimental": "(§1) The residues R331, L358, E379, D381, E384, W362, and H398 of BpGH16MLG were mutated to Ala by the Q5Site-Directed Mutagenesis Kit (New England Biolabs, UK, catalogue no. E0554S). Wild-type plasmid BpGH16-pET28a(+) was used as a template, and mutagenic forward and reverse primers were developed using NEBaseChanger with subtle modifications (Table S4). A 25 μl PCR cocktail was prepared for mutating each residue. The final concentration of Q5 Hot Start High-Fidelity 2X Master Mix was 1X, each primer was at 0.5 μM, the amount of used template was 20 ng, and the rest of the volume was made up of nuclease-free water. PCR was executed using the following conditions-initial denaturation was performed at 98 °C for 1 min, for each cycle-denaturation, annealing, and extension (72 °C) were set for 10 s, 20 s, and 7 min, respectively. […] The mutant protein was then expressed as per the protocol mentioned earlier, and kinetics were performed with barley β-glucan.\n(§2) Reactions were performed in 100 μl volume mixture using recombinant enzyme (final concentration at 0.1 mg/ml) in 50 mM sodium phosphate buffer (pH 5.7) at 37 °C for 1 h of incubation. […] Enzymatic assays were determined with 3,5- dinitrosalicylic acid (DNS) assay ([85]). […] Consequently, recorded the developed color spectrophotometrically at 575 nm ([85]). […]"}, "[1]": {"system": "β-glucan utilization locus of B. producta", "assay": "RT-qPCR of β-glucan utilization locus genes", "type": "cell-based, Blautia producta ATCC 27340", "experimental": "Changes in the transcript expression levels of the β-glucan utilization locus of B. producta were performed by RT-qPCR. B. producta was initially cultured in 5 ml of GAM for 24 h and cells were spun down by centrifugation and washed three times with sterile PBS. […] Immediately, 300 μl saturated phenol with citrate buffer (pH 4.3, […] Sigma Aldrich) was added, and the mixed solution was incubated at 60 °C for 5 min with mild shaking. After that, it was centrifuged at 15,000 g for 5 min, and the upper aqueous phase was transferred into a new Eppendorf tube. It was mixed with three volumes of chilled ethanol and incubated for 30 min at -80 °C. The precipitate was then collected by centrifugation at the same speed, the pellet was washed with 70% ethanol twice, and the final white residue was dissolved in 100 to 500 μl of distilled water. The concentration of total RNA was calculated by a spectrophotometer at 260 nm. If a residual amount of DNA was observed, DNase-1 treatment was also given, following the manufacturer's instructions (AMPD1, Sigma Aldrich). About 2 μg total RNA was immediately used for reverse transcription using AccuScript High Fidelity cDNA Synthesis Kit (Agilent). RT-qPCR was performed in a 96-well plate on a CFX96 qPCR system (BioRad) using SYBR Green Master (BioRad), using the primers mentioned in Table S2. The qPCR reactions were executed in 10 μl, consisting of 5 μl of SYBR green mix, 30 ng of cDNA, and one pmol of each primer of a gene of the locus or 16S rRNA (Table S2). […] The 2^ˆ-ΔΔCt method calculated the expression of each gene and normalized data to 16S rRNA transcript level. Finally, the expression level of each gene was calculated as fold change compared with cultures of a minimal medium containing 1% glucose. Three technical replicates were used for bar generation of each gene expression; each bar represents average values and error bars indicate the standard errors of three technical replicates."}, "BPGH16 mutant W362A": {"system": "BPGH16 mutant W362A", "assay": "Kinetics of BPGH16 mutant W362A (DNS assay)", "type": "biochemical, Blautia producta ATCC 27340", "experimental": "as §1, §2"}, "[2]": {"details": "1% barley β-glucan compared to glucose"}}}
{"substance": "Barley β-glucan", "values": [{"measurement": "kcat", "setting": "BPGH16 mutant E379A", "value": 0, "unit": "s⁻¹"}, {"measurement": "upregulation of bp1313 expression", "setting": "[1]; [2]", "value": 5.2, "unit": "fold"}, {"measurement": "upregulation of bp1314 expression", "setting": "[1]; [2]", "value": 3.9, "unit": "fold"}, {"measurement": "upregulation of bp1316 expression", "setting": "[1]; barley MLG versus glucose", "value": 4.7, "unit": "fold"}, {"measurement": "upregulation of bp1317 expression", "setting": "[1]; barley MLG versus glucose", "value": 5, "unit": "fold"}, {"measurement": "upregulation of bp1318 expression", "setting": "[1]; barley MLG versus glucose", "value": 4.5, "unit": "fold"}, {"measurement": "fold change in expression of transcriptional regulator bp1315", "setting": "[1]; barley β-glucan compared to glucose", "value": 0.76, "unit": "fold"}, {"measurement": "kcat", "setting": "BPGH16 mutant W362A", "value": 0, "unit": "s⁻¹"}]}
